What was measured:
[1] = system: Human Umbilical Vein Endothelial Cells (HUVECs); assay: Inhibition against sandwich tube formation by vascular endothelial cells, FGF2-stimulated; format: cell-based; conditions: HUVEC, 20 ng/ml FGF2 and 10 ng/ml EGF, 4th day after addition
Procedure: Human Umbilical Vein Endothelial Cells (HUVECs) were isolated according to a reported method (Shinseikagaku Jikken Koza [New Biochemistry Experiment Lectures], “Saibo Baiyo Gijutsu” [Cell Culturing Techniques], p. 197-202), • and were cultured in a 5% CO2 incubator (37° C.) using EGM-2 medium (purchased from Clonetics Corp.) until the cells reached confluency.
An ice-cooled mixture of collagen: 5×RPMI 1640: reconstitution buffer (all purchased from Nitta Gelatin, Inc.) at 7:2:1 was dispensed at 0.4 ml into each well of a 24-well plate. After the solution was gelled by being stationed for 40 minutes in a 5% CO2 incubator (37° C.), HUVEC cell suspension was added at 0.4 ml to each well (using 1 to 1.2×10^5 cells, though the numbers of cells differ slightly according to the HUVEC lot), the HUVEC cell suspension being in human endothelial serum free medium (SFM, purchased from GIBCO BRL) containing added angiogenesis factors [20 ng/ml FGF2 (purchased from GIBCO BRL) and 10 ng/ml EGF (purchased from GIBCO BRL), or 25 ng/ml VEGF (purchased from Wako Pure Chemical Industries Co., Ltd.) and 10 ng/ml EGF, or 30 ng/ml HGF (purchased from R&D Co.) and 10 ng/ml EGF], and cultured overnight in a 5% CO2 incubator (37° C.). On the following day, the medium on the upper layer was aspirated off, and then 0.4 ml of an ice-cooled mixture of collagen: 5×RPMI 1640: reconstitution buffer (all purchased from Nitta Gelatin, Inc.) at 7:2:1 was superposed into each well prior to stationing for 4 hours in a 5% CO2 incubator (37° C.) for gelling. After adding 1.5 ml of an SFM solution containing each of the aforementioned angiogenesis factors and a diluted test substance onto the upper layer, culturing was performed in a 5% CO2 incubator (37° C.). Upon aspirating off the culture supernatant in each well on the 4th day after addition of the test substance, 0.4 ml of a 3.3 mg/ml MTT solution dissolved in PBS (purchased from Sigma Corp.) was added to each well and culturing was performed for approximately 2 hours in a 5% CO2 incubator (37° C.). The tubes formed in the collagen gel of each well were stained by MTT, the tube images were loaded into a computer (Macintosh), and the total length of the tubes was determined by image analysis software “MacScope” (purchased from Mitani Corp.). The ratio of the total length of the tubes formed in the well containing the test substance with respect to the total length of the tubes formed in the well containing no test substance was expressed as a percentage, and the concentration of each test substance required for 50% inhibition of tube formation (IC50) was determined from the ratio value.

[2] = system: KP-1/VEGF human pancreatic cancer cells; assay: In vivo angiogenesis-inducing activity using mouse dorsal air sac model; conditions: oral, once a day, C57BL/6N female mice, 4th day
Procedure: PCR was conducted using a human placenta cDNA library (Toyobo Co., Ltd.) as the template and the SEQ ID NO:1 (5′[…]3′) and SEQ ID NO:2 (5′[…]3′) of VEGF as primers. After completion of the PCR reaction, the 5′ ends were phosphorylated and an approximately 600 bp DNA band was separated by 1.2% agarose gel electrophoresis. After polymerization by self-ligation, the cDNA was cut with EcoRI and BamHI and inserted into the EcoRI and BamHI sites of vector pUC19. This was used to transform E. coli JM83, and plasmids were recovered from the transformed clones. A VEGF cDNA fragment was cut out of the plasmids with HindIII and EcoRI and then inserted into pIRES2-rsGFP vector to yield pIRES2-rsGFP/VEGF for protein expression.
After overnight culturing of KP-1 human pancreatic cancer cells (3×10^6 cells) with 10% FCS-containing RPMI 1640 medium, an Effectene Transfection Reagent Kit (Qiagen) was used for introduction of 3 μg of pIRES2-rsGFP/VEGF into the KP-1 cells. After culturing in 10% FCS-containing RPMI 1640 medium containing 600 μg/ml of Geneticin, drug-resistant cells were selected. Furthermore, GFP high-expressing cells were collected by cell sorter (Becton Dickinson) as VEGF high-expressing KP-1 cells (KP-1/VEGF).
The KP-1/VEGF cells were prepared to 5×10^5 cells/ml, and 0.5 ml thereof was dispensed into each well of a 24-well plate and cultured at 37° C. for 24 hours. The culture supernatants were collected and the VEGF levels thereof measured using a VEGF measuring kit (IBL Co., Ltd.) for confirmation of high expression.
Millipore rings (Nihon Millipore) were sealed with 0.45 μm Durapore filter membranes (Nihon Millipore) to create chambers. KP-1/VEGF human pancreatic cancer cells (3×10^6) suspended in 0.17 ml of collagen gel were injected into each chamber through the injection port, and the chambers were sealed. Approximately 10 ml of air was then injected in the dorsal skin of 6-week-old C57BL/6N female mice under anesthesia to produce pouches, and the prepared chambers were transplanted therein. About 6 hours after completing transplantation, a test substance suspended in 0.5% methyl cellulose was orally administered (0.1 ml/10 g body weight), and this was continued once a day for the next 4 days.
On the 4th day after transplanting the chambers, 0.2 ml of ^51Cr (Amersham Pharmacia)-labeled mouse erythrocytes (2.5×10^6 cpm/ml) were injected through the caudal veins of each of the mice with the transplanted chambers. After a prescribed period, the skin in contact with the chamber was excised and frozen, the section in direct contact with the chamber was precisely cut off, and the radioactivity was measured with a Y-counter. The blood volume was calculated from the radioactivity and used as an index of the in vivo angiogenesis-inducing activity. The angiogenesis volume was recorded as this measured blood volume minus the blood volume obtained with transplantation of a chamber containing only collagen gel. The experiment was conducted using 10 mice in the control (solvent-administered) group and 5 mice in each compound-administered group.

Compound | IC50 [1] | proportion of the angiogenesis amount after administering test substance to that of control ([2]; 30 mg/kg/day) | proportion of the angiogenesis amount after administering test substance to that of control ([2]; 100 mg/kg/day)
CNC(=O)n1ccc2cc(Oc3ccnc(NC(=O)N4CCC(O)CC4)c3)ccc21 [Example 39, N1-Methyl-5-(2-((4-hydroxypiperidino)carbonyl)amino-4-pyridyl)oxy-1H-1-indolecarboxamide] | 470 nM | – | –
CNC(=O)n1ccc2cc(Oc3ccnc(NC(=O)N4CCC(C)(O)CC4)c3)ccc21 [Example 41, 5-(2-(((4-Hydroxy-4-methylpiperidin-1-yl)carbonyl)amino)pyridin-4-yloxy)-1H-1-indole-1-carboxylic acid methylamide] | 250 nM | – | –
CNC(=O)n1ccc2cc(Oc3ccnc(NC(=O)N4CCC(N5CCCC5)CC4)c3)ccc21 [Example 46, N1-Methyl-5-(2-(((4-(pyrrolidin-1-yl)piperidin-1-yl)carbonyl)amino)pyridin-4-yloxy)-1H-1-indolecarboxamide] | 470 nM | 59.9% | 43.7%
CNC(=O)n1ccc2cc(Oc3ccnc(NC(=O)N4CCC(N5CCCCC5)CC4)c3)ccc21 [Example 47, N1-Methyl-5-(2-(((4-(piperidin-1-yl)piperidin-1-yl)carbonyl)amino)pyridin-4-yloxy)-1H-1-indolecarboxamide] | 120 nM | 87.4% | 39.5%
CNC(=O)n1ccc2cc(Oc3ccnc(NC(=O)N4CCOCC4)c3)ccc21 [Example 53, N4-(4-(1-(Methylamino)carbonyl-1H-5-indolyl)oxy-2-pyridyl)-4-morpholinecarboxamide] | 440 nM | 43.3% | 44.4%
